# Laboratory results reported in patent publication US20240246942A1, “KINASE INHIBITORS FOR THE TREATMENT OF NEURODEGENERATIVE DISEASES” (priority 2020, published 2024).
# pIC50: −log10 of the molar value. Where two headings read alike, the source gives them in different places.
# Experiments:
# [1] = target: JNK3α1 (Homo sapiens, UniProt P53779); format: biochemical
# Method: (§1) A 10-point titration of all compounds was carried out in 3-fold dilutions from 10 μM to 0.5 nM.
# [2] = target: JNK1 (Homo sapiens, UniProt P45983); experiment: JNK1 homogeneous time-resolved fluorescence enzyme inhibition assay; format: biochemical; conditions: for R: ratio of IC50 values of JNK1 over JNK3: isoform selectivity against JNK1
# Method: as §1
# [3] = target: p38α (Homo sapiens, UniProt Q16539); experiment: p38 enzyme inhibition assay; conditions: mean of ≥2 experiments; read-out: Biochemical inhibition IC50 p38α
# [4] = target: CYP3A4 (Homo sapiens, UniProt P08684); experiment: P450 cocktail inhibition assay, CYP3A4; format: in vitro ADME; conditions: at 10 μM
# Method: (§2) P450s inhibition for four major isoforms are evaluated using a cocktail inhibition assay where the metabolism of specific marker substrate (CYP1A2 phenaceten […] to acetaminophen); CYP2C9, tolbutamide hydroxylation to hydrocytolbutamide; CYP2D6, bufuralol hydroxylation to […]; and CYP3A4, midazolam hydroxylation to 1′-Hydroxymidazolam) in the presence or absence of 10 TM probe compound is evaluated. The concentration of each marker substrate is approximately its Km. […] Specific inhibitors for each isoform are included in each run to validate the system.
# [5] = target: T1, CYP1A2 (Homo sapiens, UniProt P05177); experiment: P450 cocktail inhibition assay, CYP1A2; format: in vitro ADME; conditions: at 10 μM
# T1 sequence (P05177 1-516): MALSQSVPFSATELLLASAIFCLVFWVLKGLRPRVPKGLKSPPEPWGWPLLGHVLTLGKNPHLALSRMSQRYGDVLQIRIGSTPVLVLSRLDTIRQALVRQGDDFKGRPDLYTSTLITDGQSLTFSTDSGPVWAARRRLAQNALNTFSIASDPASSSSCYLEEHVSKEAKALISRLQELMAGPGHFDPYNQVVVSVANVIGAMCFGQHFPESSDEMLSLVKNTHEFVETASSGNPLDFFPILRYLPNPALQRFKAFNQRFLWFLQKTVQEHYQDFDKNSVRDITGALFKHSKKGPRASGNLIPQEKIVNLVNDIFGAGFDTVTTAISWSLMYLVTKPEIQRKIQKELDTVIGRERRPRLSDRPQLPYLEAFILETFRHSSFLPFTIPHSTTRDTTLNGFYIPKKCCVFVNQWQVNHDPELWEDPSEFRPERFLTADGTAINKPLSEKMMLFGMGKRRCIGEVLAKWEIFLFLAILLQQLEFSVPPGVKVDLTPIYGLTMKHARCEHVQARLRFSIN
# Method: as §2
# [6] = target: JNK2 (Homo sapiens, UniProt P45984); experiment: JNK2 homogeneous time-resolved fluorescence enzyme inhibition assay; format: biochemical; conditions: for R: ratio of IC50 values of JNK2 over JNK3: isoform selectivity against JNK2; for pIC50: mean of ≥2 experiments, read-out: Biochemical inhibition IC50 JNK2
# Method: as §1
# [7] = target: CYP2C9 (Homo sapiens, UniProt P11712); experiment: P450 cocktail inhibition assay, CYP2C9; format: in vitro ADME; conditions: at 10 μM
# Method: as §2
# [8] = Microsomal stability, human; format: in vitro ADME; conditions: human microsomes
# [9] = Microsomal stability, mouse; format: in vitro ADME; conditions: mouse microsomes
# [10] = target: CYP2D6 (Homo sapiens, UniProt P10635); experiment: P450 cocktail inhibition assay, CYP2D6; format: in vitro ADME; conditions: at 10 μM
# Method: as §2
# [11] = system: SHSY5Y cells; experiment: MTT cytotoxicity assay; format: cell-based; set-up: dose or concentration left out as unconfirmed; conditions: 48 hrs, average of ≥2 experiments;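 further: compounds tested at 10 µM final concentration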
# Method: A day before the assay, cells were plated at 50,000/well in 96 well plates in the culture medium. […] After the incubation, cells were subjected to MTT assay using Vybrant MTT Cell Proliferation kit as directed by the vendor (Life Technologies).
# [12] = mean of ≥2 experiments, read-out: Biochemical inhibition IC50 JNK3
# [13] = mean of ≥2 experiments, read-out: Biochemical inhibition IC50 JNK1
# JNK3α1, sequence (P53779 1-422 isoform P53779-2): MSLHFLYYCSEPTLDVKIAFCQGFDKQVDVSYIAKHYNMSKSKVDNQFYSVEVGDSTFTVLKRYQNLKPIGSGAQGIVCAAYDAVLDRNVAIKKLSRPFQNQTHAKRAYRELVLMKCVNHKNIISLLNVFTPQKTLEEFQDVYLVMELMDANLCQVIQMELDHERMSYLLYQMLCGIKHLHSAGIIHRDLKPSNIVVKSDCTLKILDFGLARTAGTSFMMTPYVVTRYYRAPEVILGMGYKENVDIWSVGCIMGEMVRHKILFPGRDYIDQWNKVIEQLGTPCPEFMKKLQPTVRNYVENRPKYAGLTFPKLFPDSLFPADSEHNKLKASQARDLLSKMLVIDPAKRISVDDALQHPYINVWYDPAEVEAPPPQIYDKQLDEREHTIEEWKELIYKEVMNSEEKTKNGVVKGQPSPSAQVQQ
# JNK2, sequence (P45984 whole entry, canonical isoform): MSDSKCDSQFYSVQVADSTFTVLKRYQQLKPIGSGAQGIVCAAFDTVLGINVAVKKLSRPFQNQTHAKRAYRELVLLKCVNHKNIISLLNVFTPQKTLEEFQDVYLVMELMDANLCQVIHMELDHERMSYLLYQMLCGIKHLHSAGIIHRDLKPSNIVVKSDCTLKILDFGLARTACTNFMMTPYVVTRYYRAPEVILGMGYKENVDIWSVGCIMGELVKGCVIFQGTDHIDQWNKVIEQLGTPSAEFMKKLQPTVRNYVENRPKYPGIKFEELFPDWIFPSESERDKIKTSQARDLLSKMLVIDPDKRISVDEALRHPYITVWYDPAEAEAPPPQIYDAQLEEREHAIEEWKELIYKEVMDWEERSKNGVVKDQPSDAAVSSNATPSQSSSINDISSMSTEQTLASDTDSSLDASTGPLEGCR
# CYP3A4, sequence (P08684 whole entry, canonical isoform): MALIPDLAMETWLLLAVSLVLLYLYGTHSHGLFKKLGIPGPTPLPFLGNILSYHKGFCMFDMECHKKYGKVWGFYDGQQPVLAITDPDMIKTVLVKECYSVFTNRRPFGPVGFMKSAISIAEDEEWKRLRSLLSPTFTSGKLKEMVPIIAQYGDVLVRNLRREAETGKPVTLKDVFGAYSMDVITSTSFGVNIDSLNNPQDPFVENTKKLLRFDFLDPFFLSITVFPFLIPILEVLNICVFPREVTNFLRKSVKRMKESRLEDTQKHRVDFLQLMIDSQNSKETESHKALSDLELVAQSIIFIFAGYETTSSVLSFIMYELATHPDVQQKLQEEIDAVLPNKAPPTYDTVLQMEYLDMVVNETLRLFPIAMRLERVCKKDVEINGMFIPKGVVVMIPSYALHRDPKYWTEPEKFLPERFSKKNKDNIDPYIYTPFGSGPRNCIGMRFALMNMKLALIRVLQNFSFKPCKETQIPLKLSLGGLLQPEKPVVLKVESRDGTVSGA
# p38α, sequence (Q16539 whole entry): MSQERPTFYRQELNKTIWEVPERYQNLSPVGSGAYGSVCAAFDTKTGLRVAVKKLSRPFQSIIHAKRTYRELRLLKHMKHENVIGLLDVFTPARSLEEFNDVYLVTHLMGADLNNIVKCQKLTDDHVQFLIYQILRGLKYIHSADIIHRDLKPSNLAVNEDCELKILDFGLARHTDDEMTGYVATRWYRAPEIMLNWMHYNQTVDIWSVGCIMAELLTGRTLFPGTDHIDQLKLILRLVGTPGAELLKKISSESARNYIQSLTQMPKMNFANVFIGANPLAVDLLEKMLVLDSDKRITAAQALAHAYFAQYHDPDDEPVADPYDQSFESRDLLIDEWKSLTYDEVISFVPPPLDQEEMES
# JNK1, sequence (P45983 whole entry, canonical isoform): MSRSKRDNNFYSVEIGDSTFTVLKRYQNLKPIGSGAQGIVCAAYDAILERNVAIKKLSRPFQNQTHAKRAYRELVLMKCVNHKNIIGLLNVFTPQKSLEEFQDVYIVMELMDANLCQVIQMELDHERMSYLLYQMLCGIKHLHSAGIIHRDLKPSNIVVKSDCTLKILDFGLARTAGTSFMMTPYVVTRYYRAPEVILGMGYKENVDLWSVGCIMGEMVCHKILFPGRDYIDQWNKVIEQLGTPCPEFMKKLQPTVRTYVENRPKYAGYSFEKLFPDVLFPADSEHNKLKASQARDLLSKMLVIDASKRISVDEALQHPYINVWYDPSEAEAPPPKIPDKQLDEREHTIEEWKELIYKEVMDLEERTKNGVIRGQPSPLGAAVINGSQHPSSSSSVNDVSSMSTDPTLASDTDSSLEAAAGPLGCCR
# CYP2C9, sequence (P11712 whole entry): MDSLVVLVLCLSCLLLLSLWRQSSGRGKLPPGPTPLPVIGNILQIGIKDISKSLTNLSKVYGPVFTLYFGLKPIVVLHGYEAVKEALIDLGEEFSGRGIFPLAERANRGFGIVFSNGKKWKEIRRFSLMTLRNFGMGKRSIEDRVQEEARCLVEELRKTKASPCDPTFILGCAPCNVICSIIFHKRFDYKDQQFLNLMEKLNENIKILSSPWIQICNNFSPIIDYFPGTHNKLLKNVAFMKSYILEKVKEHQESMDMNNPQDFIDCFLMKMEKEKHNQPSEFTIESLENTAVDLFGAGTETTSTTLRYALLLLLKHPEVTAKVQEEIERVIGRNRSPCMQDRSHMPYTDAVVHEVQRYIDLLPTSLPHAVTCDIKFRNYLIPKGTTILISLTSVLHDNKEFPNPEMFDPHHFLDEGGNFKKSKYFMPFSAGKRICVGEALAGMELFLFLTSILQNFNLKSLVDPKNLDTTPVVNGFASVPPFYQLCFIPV
# CYP2D6, sequence (P10635 whole entry): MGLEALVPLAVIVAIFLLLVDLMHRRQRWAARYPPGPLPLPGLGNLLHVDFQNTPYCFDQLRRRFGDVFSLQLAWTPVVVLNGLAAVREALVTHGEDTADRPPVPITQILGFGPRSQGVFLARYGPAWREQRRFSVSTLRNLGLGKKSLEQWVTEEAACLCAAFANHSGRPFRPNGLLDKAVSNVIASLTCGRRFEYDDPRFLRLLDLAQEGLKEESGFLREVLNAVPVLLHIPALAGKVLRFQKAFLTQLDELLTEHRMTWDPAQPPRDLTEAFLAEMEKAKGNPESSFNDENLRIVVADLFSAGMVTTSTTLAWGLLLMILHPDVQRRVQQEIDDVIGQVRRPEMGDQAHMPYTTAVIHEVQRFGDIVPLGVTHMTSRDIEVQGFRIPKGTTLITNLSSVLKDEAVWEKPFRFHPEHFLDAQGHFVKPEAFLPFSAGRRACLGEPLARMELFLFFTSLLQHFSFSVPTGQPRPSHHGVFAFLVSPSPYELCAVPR
SMILES,"pIC50 [1, 12]",R: ratio of IC50 values of JNK1 over JNK3 [2],"pIC50 [2, 13]",pIC50 [3],further results
"CN1CCC[C@H]1CNC(=O)c1cc(-n2cc(NC(=O)Nc3ccccc3Cl)cn2)cs1 [Compound 23, (S)-4-(4-(3-(2-chlorophenyl)ureido)-1H-pyrazol-1-yl)-N-((1-methylpyrrolidin-2-yl)methyl)thiophene-2-carboxamide]",7.07,107,5.04,,
"O=C(Nc1cnn(-c2csc(C(=O)NCC3CCNCC3)c2)c1)Nc1ccccc1Cl [Compound 20, 4-(4-(3-(2-chlorophenyl)ureido)-1H-pyrazol-1-yl)-N-(piperidin-4-ylmethyl)thiophene-2-carboxamide]",,,5.18,< 4.70,
"CC1(NC(=O)c2cc(-n3cc(NC(=O)Nc4ccccc4Cl)cn3)cs2)COC1 [Compound 18, 4-(4-(3-(2-chlorophenyl)ureido)-1H-pyrazol-1-yl)-N-(3-methyloxetan-3-yl)thiophene-2-carboxamide]",7.35,73,5.48,< 4.70,
"CN1CC[C@@H](NC(=O)c2cc(-n3cc(NC(=O)Nc4ccccc4Cl)cn3)cs2)C1 [Compound 10, (R)-4-(4-(3-(2-chlorophenyl)ureido)-1H-pyrazol-1-yl)-N-(1-methylpyrrolidin-3-yl)thiophene-2-carboxamide]",7.07,60,5.29,,
"O=C(Nc1cnn(-c2csc(C(=O)NC3CC3)c2)c1)Nc1ccccc1Cl [Compound 8, 4-(4-(3-(2-chlorophenyl)ureido)-1H-pyrazol-1-yl)-N-cyclopropylthiophene-2-carboxamide]",7.10,93,5.13,< 4.70,CYP-450 % inh. 3A4 [4]: −45%; CYP-450 % inh. 1A2 [5]: −2%; isoform selectivity against JNK2 vs JNK3 [6]: around 40 folds; R: ratio of IC50 values of JNK2 over JNK3 [6]: 40; pIC50 [6]: 5.49; CYP-450 % inh. 2C9 [7]: −4%; Mic. stability t1/2 Human [8]: 49 min; Mic. stability t1/2 Mouse [9]: 35 min; CYP-450 % inh. 2D6 [10]: −29%; MTT cell viability [11]: 103%
"O=C(Nc1cnn(-c2nc(C(=O)NC3CNC3)cs2)c1)Nc1ccccc1Cl [Compound 3, N-(azetidin-3-yl)-2-(4-(3-(2-chlorophenyl)ureido)-1H-pyrazol-1-yl)thiazole-4-carboxamide]",,,,,"inhibition of JNK3 ([1]; in words, FIG. 3): no inhibition; inhibition of JNK1 ([2]; in words, FIG. 3): no inhibition"
"CN1CC[C@H](CNC(=O)c2cc(-n3cc(NC(=O)Nc4ccccc4Cl)cn3)cs2)C1 [Compound 21, (R)-4-(4-(3-(2-chlorophenyl)ureido)-1H-pyrazol-1-yl)-N-((1-methylpyrrolidin-3-yl)methyl)thiophene-2-carboxamide]",6.65,46,4.99,,
"O=C(Nc1cnn(-c2cc(C(=O)NC3CNC3)cs2)c1)Nc1ccccc1Cl [Compound 5, N-(azetidin-3-yl)-5-(4-(3-(2-chlorophenyl)ureido)-1H-pyrazol-1-yl)thiophene-3-carboxamide]",6.70,,,,
"O=C(Nc1cnn(-c2csc(C(=O)NC3CNC3)c2)c1)Nc1ccccc1Cl [Compound 6, N-(azetidin-3-yl)-4-(4-(3-(2-chlorophenyl)ureido)-1H-pyrazol-1-yl)thiophene-2-carboxamide]",7.30,72,5.44,< 4.70,"isoform selectivity against JNK1 ([2]; JNK3 over JNK1, text): 72 fold"
"O=C(Nc1cnn(-c2csc(C(=O)NC[C@H]3CCOC3)c2)c1)Nc1ccccc1Cl [Compound 22, (R)-4-(4-(3-(2-chlorophenyl)ureido)-1H-pyrazol-1-yl)-N-((tetrahydrofuran-3-yl)methyl)thiophene-2-carboxamide]",7.15,31,5.66,,
"O=C(Nc1cnn(-c2csc(C(=O)N[C@@H]3CCNC3)c2)c1)Nc1ccccc1Cl [Compound 9, (R)-4-(4-(3-(2-chlorophenyl)ureido)-1H-pyrazol-1-yl)-N-(pyrrolidin-3-yl)thiophene-2-carboxamide]",6.88,,5.23,,
"CC(C)N1CC[C@H](NC(=O)c2cc(-n3cc(NC(=O)Nc4ccccc4Cl)cn3)cs2)C1 [Compound 13, (S)-4-(4-(3-(2-chlorophenyl)ureido)-1H-pyrazol-1-yl)-N-(1-isopropylpyrrolidin-3-yl)thiophene-2-carboxamide]",7.92,60,6.14,,
"O=C(Nc1cnn(-c2csc(C(=O)N[C@@H]3CCOC3)c2)c1)Nc1ccccc1Cl [Compound 16, (R)-4-(4-(3-(2-chlorophenyl)ureido)-1H-pyrazol-1-yl)-N-(tetrahydrofuran-3-yl)thiophene-2-carboxamide]",,188,5.82,,pIC50 ([1]; read-out: JNK3 inhibitory activity IC50): 8.10; CYP-450 % inh. 3A4 [4]: −20%; CYP-450 % inh. 1A2 [5]: 17%; isoform selectivity against JNK2 vs JNK3 [6]: > 250 folds; R: ratio of IC50 values of JNK2 over JNK3 [6]: 253; pIC50 [6]: 5.69; CYP-450 % inh. 2C9 [7]: 38%; Mic. stability t1/2 Human [8]: 33 min; Mic. stability t1/2 Mouse [9]: 13 min; CYP-450 % inh. 2D6 [10]: 1%; MTT cell viability [11]: 112%
"CNC(=O)c1cc(-n2cc(NC(=O)Nc3ccccc3Cl)cn2)cs1 [Compound 7, 4-(4-(3-(2-chlorophenyl)ureido)-1H-pyrazol-1-yl)-N-methylthiophene-2-carboxamide]",,,,< 4.70,pIC50 [2]: < 4.70
"O=C(Nc1cnn(-c2ccc(C(=O)NC3CNC3)s2)c1)Nc1ccccc1Cl [Compound 4, N-(azetidin-3-yl)-5-(4-(3-(2-chlorophenyl)ureido)-1H-pyrazol-1-yl)thiophene-2-carboxamide]",6.10,,,,
"[2H]C([2H])([2H])N1CC[C@@H](NC(=O)c2cc(-n3cc(NC(=O)Nc4ccccc4Cl)cn3)cs2)C1 [Compound 11, (R)-4-(4-(3-(2-chlorophenyl)ureido)-1H-pyrazol-1-yl)-N-(1-(methyl-d3)pyrrolidin-3-yl)thiophene-2-carboxamide]",7.08,61,5.29,,
"CN1CC[C@H](NC(=O)c2cc(-n3cc(NC(=O)Nc4ccccc4Cl)cn3)cs2)C1 [Compound 12, (S)-4-(4-(3-(2-chlorophenyl)ureido)-1H-pyrazol-1-yl)-N-(1-methylpyrrolidin-3-yl)thiophene-2-carboxamide]",7.41,56,5.66,,CYP-450 % inh. 3A4 [4]: −18%; CYP-450 % inh. 1A2 [5]: −1%; isoform selectivity against JNK2 vs JNK3 [6]: around 40 folds; R: ratio of IC50 values of JNK2 over JNK3 [6]: 39; pIC50 [6]: 5.82; CYP-450 % inh. 2C9 [7]: −9%; Mic. stability t1/2 Human [8]: 54 min; Mic. stability t1/2 Mouse [9]: 20 min; CYP-450 % inh. 2D6 [10]: 20%; MTT cell viability [11]: 94%
"CN1CCC(CNC(=O)c2cc(-n3cc(NC(=O)Nc4ccccc4Cl)cn3)cs2)CC1 [Compound 19, 4-(4-(3-(2-chlorophenyl)ureido)-1H-pyrazol-1-yl)-N-((1-methylpiperidin-4-yl)methyl)thiophene-2-carboxamide]",6.85,41,5.24,< 4.70,
